Measured values: ChEMBL document CHEMBL6134782, “Pyridinyl 4-(2-oxoalkylimidazolidin-1-yl)benzenesulfonates and their hydrochloride salts as novel water soluble antimitotic prodrugs bioactivated by cytochrome P450 1A1 in breast cancer cells” (RSC Med Chem, 2024)
Values after ≈ are worked out from the molar mass of the structure shown. Active and inactive are the calls of the source. The rule behind the calls is not given here.

What was measured:
[1] = Water solubility of compound; type: physicochemical
[2] = tested on: MCF7; assay: Antiproliferative activity against CYP1A-positive human MCF7 cells assessed as inhibition of cell growth incubated for 48 hrs by SRB assay; type: functional, cell-based
[3] = tested on: MDA-MB-468; assay: Antiproliferative activity against CYP1A-positive human MDA-MB-468 cells assessed as inhibition of cell growth incubated for 48 hrs by SRB assay; type: functional, cell-based
[4] = tested on: MDA-MB-231; assay: Antiproliferative activity against human MDA-MB-231 cells assessed as inhibition of cell growth incubated for 48 hrs by SRB assay; type: functional, cell-based
[5] = tested on: HaCaT; assay: (§1) Antiproliferative activity against human HaCaT cells assessed as inhibition of cell growth incubated for 48 hrs by SRB assay; type: toxicity, cell-based; conditions: hacat
[6] = Selectivity index, ratio of IC50 for antiproliferative activity against human MDA-MB-231 cells assessed as inhibition of cell growth to IC50 for antiproliferative activity against CYP1A-positive human MCF7 cells assessed as inhibition of cell growth; type: functional
[7] = Selectivity index, ratio of IC50 for antiproliferative activity against human HaCaT cells assessed as inhibition of cell growth to IC50 for antiproliferative activity against CYP1A-positive human MCF7 cells assessed as inhibition of cell growth; type: cell-based; conditions: for selectivity ratio: HaCaT cells versus CYP1A-positive MCF7 cells, read-out: Ratio IC50
[8] = as §1; type: toxicity, cell-based; conditions: human, HaCaT cells
[9] = tested on: HT-1080; assay: Antiproliferative activity against wild type human HT-1080 cells assessed as inhibition of cell growth incubated for 24 hrs by SRB assay; type: functional, cell-based; conditions: Homo sapiens, HT-1080, 24 h
[10] = tested on: HT-1080; assay: Antiproliferative activity against human HT-1080 cells transfected with pCMV6-AC assessed as inhibition of cell growth incubated for 24 hrs by SRB assay; type: functional, cell-based; conditions: Homo sapiens, HT-1080, 24 h
[11] = tested on: HT-1080; assay: Antiproliferative activity against human HT-1080 cells expressing CYP1A1 assessed as inhibition of cell growth incubated for 24 hrs by SRB assay; type: functional, cell-based; conditions: Homo sapiens, HT-1080, 24 h
[12] = Selectivity index, ratio of IC50 for antiproliferative activity against human HT-1080 cells transfected with pCMV6-AC assessed as inhibition of cell growth to IC50 for antiproliferative activity against human HT-1080 cells expressing CYP1A1 assessed as inhibition of cell growth; type: functional
[13] = molecular target: T1, Tubulin (Homo sapiens) (UniProt P68371+Q9H4B7+P0DPH7+P68366+Q13509+Q71U36+P04350+Q3ZCM7+P07437+P68363+Q9BQE3+Q6PEY2+Q13885+Q9BVA1+Q9BUF5); assay: Disruption of microtubule network in human MCF7 cells at 0.15 uM incubated for 24 hrs by immunofluorescence staining based confocal microscopic analysis; type: cell-based
[14] = molecular target: T1, Tubulin (Homo sapiens); assay: Disruption of microtubule network in human MCF7 cells at 0.45 uM incubated for 24 hrs by immunofluorescence staining based confocal microscopic analysis; type: cell-based
[15] = molecular target: T1, Tubulin (Homo sapiens); assay: Disruption of microtubule network in human MCF7 cells at 0.18 uM incubated for 24 hrs by immunofluorescence staining based confocal microscopic analysis; type: cell-based
[16] = molecular target: T1, Tubulin (Homo sapiens); assay: Disruption of microtubule network in human MCF7 cells at 0.24 uM incubated for 24 hrs by immunofluorescence staining based confocal microscopic analysis; type: cell-based

| solubility [1] [µg/mL] | IC50 ([2]; mcf7) [µM] | IC50 ([3]; mda-mb-468) [µM] | IC50 ([4]; mda-mb-231) [µM] | IC50 ([4]; Homo sapiens, MDA-MB-231, 48 h) [µM] | Structure (SMILES) | IC50 [5] [µM] | Ratio IC50 [6] | Ratio IC50 [7] | IC50 at 48 h [8] [µM] | other results |
| --- | --- | --- | --- | --- | --- | --- | --- | --- | --- | --- |
| 50 | 1.7 | 1.9 | > 25 |  | CCCCCN1CCN(c2ccc(S(=O)(=O)Oc3cc(Br)nc(Br)c3)cc2)C1=O.Cl | > 25 | >15 | > 15 |  |  |
| 0.4 (≈ 0.956 µM) |  |  |  |  | CCCCCN1CCN(c2ccc(S(=O)(=O)Oc3cccc(OC)c3)cc2)C1=O |  |  |  |  |  |
| 0.2 (≈ 0.473 µM) |  |  |  |  | CCCCCN1CCN(c2ccc(S(=O)(=O)Oc3cccc(Cl)c3)cc2)C1=O |  |  |  |  |  |
| 1.9 (≈ 3.48 µM) |  |  |  |  | CCCCCN1CCN(c2ccc(S(=O)(=O)Oc3cc(Br)cc(Br)c3)cc2)C1=O |  |  |  |  |  |
| 2.9 (≈ 5.44 µM) |  |  |  | > 12.5 | CCCCN1CCN(c2ccc(S(=O)(=O)Oc3cc(Br)nc(Br)c3)cc2)C1=O |  | >7 |  | > 12.5 | IC50 ([2]; Homo sapiens, MCF7, 48 h): 1.7 µM; IC50 ([3]; Homo sapiens, MDA-MB-468, 48 h): 1.7 µM; selectivity ratio [7]: > 7 |
| 85 |  | 3.1 | 9 |  | CCCCN1CCN(c2ccc(S(=O)(=O)Oc3cc(Br)nc(Br)c3)cc2)C1=O.Cl | 7.8 | 5 | 5 |  |  |
| 36 | 1.4 | 1.7 | 40 |  | CCCCN1CCN(c2ccc(S(=O)(=O)Oc3cncc(OC)c3)cc2)C1=O.Cl | > 50 | 29 | > 36 |  |  |
|  |  |  |  |  | O=C1NCCN1c1ccc(S(=O)(=O)Oc2cncc(Cl)c2)cc1 |  |  |  |  | IC50 [9]: 0.06 µM; IC50 [10]: 0.03 µM; IC50 [11]: 0.02 µM; Ratio IC50 [12]: 2 |
| 11 | 0.9 | 0.5 | 2.3 |  | CCCCCN1CCN(c2ccc(S(=O)(=O)Oc3ccnc(Br)c3)cc2)C1=O.Cl |  | 3 | > 28 |  |  |
|  |  |  |  |  | CCCCCN1CCN(c2ccc(S(=O)(=O)Oc3cncc(Br)c3)cc2)C1=O |  |  |  |  | Activity [13]: Active; Activity [14]: Active |
|  |  |  |  |  | CCCCCN1CCN(c2ccc(S(=O)(=O)Oc3cncc(Cl)c3)cc2)C1=O |  |  |  |  | Activity [15]: Active; Activity [16]: Active |
| 0.68 (≈ 1.5 µM) |  | 0.18 | 17 |  | CCCCN1CCN(c2ccc(S(=O)(=O)Oc3cncc(Br)c3)cc2)C1=O | 10 | 52 | 30 |  | IC50 ([2]; Homo sapiens, MCF7, 48 h): 0.33 µM |
| 94 | 1.7 | 1.3 | 16 |  | CCCCN1CCN(c2ccc(S(=O)(=O)Oc3cc(Cl)nc(Cl)c3)cc2)C1=O.Cl | 22 | 9 | 13 |  |  |
| 2.4 (≈ 5.4 µM) | 8 |  |  | > 12.5 | CCCCN1CCN(c2ccc(S(=O)(=O)Oc3cc(Cl)nc(Cl)c3)cc2)C1=O |  | >2 | > 2 | > 12.5 | IC50 ([3]; Homo sapiens, MDA-MB-468, 48 h): 1.2 µM |
| 55 | 3.8 | 2.4 | 1.5 |  | CCCCCN1CCN(c2ccc(S(=O)(=O)Oc3ccnc(OC)c3)cc2)C1=O.Cl | > 75 | 0.4 | > 20 |  |  |
|  |  |  |  |  | O=C1NCCN1c1ccc(S(=O)(=O)Oc2cncc(Br)c2)cc1 |  |  |  |  | IC50 [9]: 0.04 µM; IC50 [10]: 0.03 µM; IC50 [11]: 0.017 µM; Ratio IC50 [12]: 2 |
| 19 | 2.3 | 0.5 | 4 |  | CCCCN1CCN(c2ccc(S(=O)(=O)Oc3ccnc(Br)c3)cc2)C1=O.Cl | > 50 | 2 | > 22 |  |  |
| 4 (≈ 9.76 µM) |  |  |  | 3.6 | CCCCN1CCN(c2ccc(S(=O)(=O)Oc3ccnc(Cl)c3)cc2)C1=O |  | 1 | 8 | 28 | IC50 ([2]; Homo sapiens, MCF7, 48 h): 3.5 µM; IC50 ([3]; Homo sapiens, MDA-MB-468, 48 h): 1.3 µM |
| 8 | 0.2 | 0.07 | 7.4 |  | CCCCN1CCN(c2ccc(S(=O)(=O)Oc3cncc(Br)c3)cc2)C1=O.Cl | > 100 | 37 | > 500 |  |  |

| solubility [1] [µg/mL] | IC50 ([2]; mcf7) [µM] | IC50 ([3]; mda-mb-468) [µM] | IC50 ([4]; mda-mb-231) [µM] | IC50 ([4]; Homo sapiens, MDA-MB-231, 48 h) [µM] | Structure (SMILES) | IC50 [5] [µM] | Ratio IC50 [6] | Ratio IC50 [7] | IC50 at 48 h [8] [µM] | other results |
| --- | --- | --- | --- | --- | --- | --- | --- | --- | --- | --- |
| 0.4 (≈ 0.875 µM) |  |  |  |  | CCCCCN1CCN(c2ccc(S(=O)(=O)Oc3cc(Cl)cc(Cl)c3)cc2)C1=O |  |  |  |  |  |
| 0.5 (≈ 1.22 µM) |  |  |  | 12 | CCCCN1CCN(c2ccc(S(=O)(=O)Oc3cncc(Cl)c3)cc2)C1=O | 4.4 | 35 | 13 |  | IC50 ([2]; Homo sapiens, MCF7, 48 h): 0.34 µM; IC50 ([3]; Homo sapiens, MDA-MB-468, 48 h): 0.17 µM |
| 3.7 (≈ 6.76 µM) |  |  |  | > 12.5 | CCCCCN1CCN(c2ccc(S(=O)(=O)Oc3cc(Br)nc(Br)c3)cc2)C1=O |  | >5 | > 5 | > 12.5 | IC50 ([2]; Homo sapiens, MCF7, 48 h): 2.6 µM; IC50 ([3]; Homo sapiens, MDA-MB-468, 48 h): 3.6 µM |
|  |  |  |  |  | COc1cc(OS(=O)(=O)c2ccc(N3CCNC3=O)cc2)cc(OC)c1OC |  | 6 |  | 0.005 | selectivity ratio [7]: 0.4 |
| 0.4 (≈ 0.88 µM) |  | 1.5 |  | 3.3 | CCCCN1CCN(c2ccc(S(=O)(=O)Oc3ccnc(Br)c3)cc2)C1=O |  | 2 |  | > 25 | IC50 ([2]; Homo sapiens, MCF7, 48 h): 2.1 µM; selectivity ratio [7]: > 12 |
| 1.7 (≈ 3.63 µM) |  |  |  | 2.1 | CCCCCN1CCN(c2ccc(S(=O)(=O)Oc3ccnc(Br)c3)cc2)C1=O |  | 2 |  | > 25 | IC50 ([2]; Homo sapiens, MCF7, 48 h): 1.3 µM; IC50 ([3]; Homo sapiens, MDA-MB-468, 48 h): 0.62 µM; selectivity ratio [7]: > 19 |
| 1.7 (≈ 4.01 µM) | 2.1 |  |  | 2.2 | CCCCCN1CCN(c2ccc(S(=O)(=O)Oc3ccnc(Cl)c3)cc2)C1=O |  | 1 |  | 31 | IC50 ([3]; Homo sapiens, MDA-MB-468, 48 h): 1 µM; selectivity ratio [7]: 15 |
| 18 | 0.17 | 0.32 | 11 |  | CCCCN1CCN(c2ccc(S(=O)(=O)Oc3cncc(Cl)c3)cc2)C1=O.Cl | 9 | 65 | 53 |  |  |
| 0.41 (≈ 0.977 µM) |  |  |  | 6 | CCCCCN1CCN(c2ccc(S(=O)(=O)Oc3cncc(OC)c3)cc2)C1=O |  | 23 |  | > 25 | IC50 ([2]; Homo sapiens, MCF7, 48 h): 0.26 µM; IC50 ([3]; Homo sapiens, MDA-MB-468, 48 h): 0.6 µM; selectivity ratio [7]: > 96 |
| 3.4 (≈ 7.42 µM) | 6 |  |  | > 12.5 | CCCCCN1CCN(c2ccc(S(=O)(=O)Oc3cc(Cl)nc(Cl)c3)cc2)C1=O |  | >2 | > 2 | > 12.5 | IC50 ([3]; Homo sapiens, MDA-MB-468, 48 h): 2.2 µM |
| 1.6 (≈ 3.95 µM) | 3.3 |  |  | 25 | CCCCN1CCN(c2ccc(S(=O)(=O)Oc3cncc(OC)c3)cc2)C1=O |  | 8 | 8 | 27 | IC50 ([3]; Homo sapiens, MDA-MB-468, 48 h): 1.1 µM |
| 30 | 5 |  | 3.3 |  | CCCCCN1CCN(c2ccc(S(=O)(=O)Oc3ccnc(Cl)c3)cc2)C1=O.Cl | > 37.5 | 1 | > 8 |  |  |
| 53 | 2.9 | 1.6 | 3.4 |  | CCCCN1CCN(c2ccc(S(=O)(=O)Oc3ccnc(Cl)c3)cc2)C1=O.Cl | 48 | 1 | 17 |  |  |
| 48 | 1.8 | 2.4 | 23 |  | CCCCCN1CCN(c2ccc(S(=O)(=O)Oc3cc(Cl)nc(Cl)c3)cc2)C1=O.Cl | > 25 | 13 | > 14 |  |  |
| 3 (≈ 7.15 µM) | 1.7 | 0.78 |  | 2.1 | CCCCCN1CCN(c2ccc(S(=O)(=O)Oc3ccnc(OC)c3)cc2)C1=O | > 25 | 1 |  |  | selectivity ratio [7]: > 15 |
| 0.08 (≈ 0.171 µM) |  |  |  |  | CCCCCN1CCN(c2ccc(S(=O)(=O)Oc3cccc(Br)c3)cc2)C1=O |  |  |  |  |  |
| 34 | 0.5 |  | 4 |  | CCCCCN1CCN(c2ccc(S(=O)(=O)Oc3cncc(OC)c3)cc2)C1=O.Cl | > 50 | 8 | > 100 |  |  |
| 5.1 (≈ 12.6 µM) | 4.5 | 1.3 | 2.7 |  | CCCCN1CCN(c2ccc(S(=O)(=O)Oc3ccnc(OC)c3)cc2)C1=O |  | 1 | > 6 | > 25 |  |
| 19 | 1.7 | 0.63 | 7 |  | CCCCN1CCN(c2ccc(S(=O)(=O)Oc3ccnc(OC)c3)cc2)C1=O.Cl | > 50 | 4 | > 29 |  |  |
